Patent EP4640686A1, “DEGRADER FOR DEGRADING BRD PROTEIN AND PHARMACEUTICAL COMPOSITION CONTAINING SAME” (Innocure Therapeutics, Inc., priority 2022, dated 2024)
Read-outs that look alike come from different tables or passages of the source.

Legend:
Type in all cases: cell-based
BRD4-NUT = biological target: T1, BRD4-NUT (Homo sapiens, UniProt O60885+Q86Y26); test: BRD4-NUT protein degradation by western blotting in RPMI2650 cells (24 h treatment)
T1 construct: endogenous in cells; host or cells: RPMI2650
Experimental: (§1) The synthesized compounds were prepared with a 10 mM or 50 mM raw material solution dissolved in DMSO [dimethyl sulfoxide], and were diluted sequentially and treated. [RPMI2650] and [SNU2972] were cultivated under specific conditions.
(§2) To evaluate the resolution of PROTAC for BRD4 expressed in cells, cells were dispensed in a concentration of 5 X 10^5 cells/well in a 6-well plate, and the sample was treated for 24 hours. […] Protein expression was normalized based on the expression value of β or GAPDH, and protein expression in each sample was measured as % based on 100% of samples treated with 0.1% DMSO vehicle. Protein expression was quantified using Image J program. Change in protein expression volume by compound treatment (DC50: concentration of compounds where 50% protein expression inhibition is achieved) was calculated using the GraphicPad Prism 8.0 software.

BRD4 = BRD4 (Homo sapiens, UniProt O60885); test: BRD4 protein degradation by western blotting in RPMI2650 cells (24 h treatment); set-up: To evaluate the resolution of PROTAC for BRD4 expressed in cells; endogenous in cells; host or cells: RPMI2650
Experimental: as §1, §2

RPMI2650 = test: Cancer cell antiproliferative activity / cell viability in RPMI2650 cells (72 h treatment)
Experimental: The human breast cancer cell line [MDA-MB-231] was cultured in RPMI medium with the addition of 10% fetal bovine serum, penicillin [100U/ml], and streptomycin [[…]]. The synthesized compounds were prepared with a 10 mM or 50 mM raw material solution dissolved in DMSO [dimethyl sulfoxide], and were diluted sequentially and treated. [RPMI2650] and [SNU2972] were cultivated under specific conditions.
To observe cell growth inhibition, cells were dispensed in a concentration of 5,000 cells/well in a 96-well plate, and samples prepared at various concentrations were treated for 72 hours. The IC50 value (the concentration of the compound achieving 50% cytostaticism) is the average value of the results of three independent measurements.

[1] = read-out: BRD4-NUT (DC50), RPMI2650
[2] = read-out: BR04 (DC50), RPMI2650
[3] = Homo sapiens, RPMI-2650, RPMI2650, read-out: BRD4 (IC50)
[4] = RPM12650, read-out: BRD4-NUT (DC50)
[5] = Homo sapiens, RPMI-2650, RPM12650, read-out: Cell Viatility (IC50)
[6] = RPM12650, read-out: BRD4 (DC50)

Question: `Cc1sc2c(c1C)C(c1ccc(Cl)cc1)=N[C@@H](CC(=O)Nc1ccc(OCCCC#Cc3ccc4c(=O)n(C5CCC(=O)NC5=O)ncc4c3)cc1)c1nnc(C)n1-2` (stereo partly drawn) [ICT-0001409, 2-[(9S)-7-(4-chlorophenyl)-4,5,13-trimethyl-3-thia-1,8,11,12-tetraazatricyclo[8.3.0.0^2,^6]trideca-2(6),4,7,10,12-pentaene-9-yl]-N-[4-({5-[2-(2,6-dioxopiperidin-3-yl)-1-oxo-1,2-dihydroptalazine-6-yl]pent-4-phosphorus-1-yl}oxy)phenyl]acetamide] was tested. Which DC50 (BRD4-NUT; [1]) did it give?
Answer: > 1000 nM

Question: And the DC50 (BRD4; [2])?
Answer: > 1000 nM

Question: `Cc1sc2c(c1C)C(c1ccc(Cl)cc1)=N[C@@H](CC(=O)Nc1ccc(OCCCCCc3ccc4c(=O)n(C5CCC(=O)NC5=O)ncc4c3)cc1)c1nnc(C)n1-2` (stereo partly drawn) [ICT-0001411, 2-[(9S)-7-(4-chlorophenyl)-4,5,13-trimethyl-3-thia-1,8,11,12-tetraazatricyclo[8.3.0.0^2,^6]trideca-2(6),4,7,10,12-pentaene-9-yl]-N-[4-({5-[2-(2,6-dioxopiperidin-3-yl)-1-oxo-1,2-dihydroptalazine-6-yl]pentyl}oxy)phenyl)acetamide] was tested. Which DC50 (BRD4-NUT; [1]) did it give?
Answer: > 1000 nM

Question: And the DC50 (BRD4; [2])?
Answer: > 1000 nM

Question: Which DC50 (BRD4-NUT; [1]) does the source give for `Cc1sc2c(c1C)C(c1ccc(Cl)cc1)=N[C@@H](CC(=O)Nc1ccc(OC[C@@H]3CN(c4ccc5c(=O)n(C6CCC(=O)NC6=O)nc(C)c5c4)CCO3)cc1)c1nnc(C)n1-2` (stereo partly drawn) [ICT-0001430, 2-[(9S)-7-(4-chlorophenyl)-4,5,13-trimethyl-3-thia-1,8,11,12-tetraazatricyclo[8.3.0.0^2,^6]trideca-2(6),4,7,10,12-pentaene-9-yl]-N-(4-{[(2S)-4-[2-(2,6-dioxopiperidin-3-yl)-4-methyl-1-oxo-1,2-dihydroptalazine-6-yl]morpholine-2-yl]methoxy}phenyl)acetamide] here?
Answer: < 100 nM

Question: And the IC50 (RPMI2650; [3])?
Answer: 100 to 1000 nM

Question: And the DC50 (BRD4; [2])?
Answer: < 100 nM

Question: What does the source list for `Cc1sc2c(c1C)C(c1ccc(Cl)cc1)=N[C@@H](CC(=O)Nc1ccc(CN3CCN(c4ccc(NC5CCC(=O)NC5=O)cc4F)CC3)cc1)c1nnc(C)n1-2` (stereo partly drawn) [ICT-0001441, 2-[(9S)-7-(4-chlorophenyl)-4,5,13-trimethyl-3-thia-1,8,11,12-tetraazatricyclo[8.3.0.0^2,^6]trideca-2(6),4,7,10,12-pentaene-9-yl]-N-{4-[(4-{4-[(2,6-dioxopiperidine-3-yl)amino]-2-fluorophenyl}piperazine-1-yl)methyl]phenyl}acetamide]?
Answer: DC50 (BRD4-NUT; RPMI2650, read-out: BRD4-NUT (DC50)): < 100 nM; IC50 (RPMI2650; [3]): < 100 nM; DC50 (BRD4; [2]): < 100 nM

Question: `CC[C@@H]1c2nnc(C)n2-c2cnc(Nc3ccc(C(=O)NCCCC#Cc4ccc5c(=O)n(C6CCC(=O)NC6=O)ncc5c4)cc3OC)nc2N1CC1CCCCC1` (stereo partly drawn) [ICT-0001515, 4-(((R)-5-(cyclohexylmethyl)-4-ethyl-1-methyl-4,5-dihydro-[1,2,4]triazolo[4,3-f]pteridine-7-yl)amino)-N-(5-(2-(2,6-dioxopiperidin-3-yl)-1-oxo-1,2-dihydroptalazine-6-yl)pent-4-phosphorus-1-yl)-3-methoxybenzamide] was tested. Which DC50 (BRD4-NUT; [4]) did it give?
Answer: > 1000 nM

Question: And the IC50 (RPMI2650; [5])?
Answer: > 1000 nM

Question: What about the DC50 (BRD4; [6]) of the same compound?
Answer: > 1000 nM

Question: Which DC50 (BRD4-NUT; [4]) does the source give for `CC[C@@H]1c2nnc(C)n2-c2cnc(Nc3ccc(C(=O)N4CCN(CC5CCN(c6ccc7c(=O)n(C8CCC(=O)NC8=O)nc(C)c7c6)CC5)CC4)cc3OC)nc2N1CC1CCCCC1` (stereo partly drawn) [ICT-0001516, 3-(6-(4-((4-(4-(((R)-5-(cyclohexylmethyl)-4-ethyl-1-methyl-4,5-dihydro-[1,2,4]triazolo[4,3-f]pteridine-7-yl)amino)3-methoxybenzoyl)piperazine-1-il)methyl)piperidine-1-yl)4-methyl-1-oxopthalazine-2(1H)-yl)piperidine-2,6-dione] here?
Answer: < 100 nM

Question: And the IC50 (RPMI2650; [5])?
Answer: > 1000 nM

Question: What about the DC50 (BRD4; [6]) of the same compound?
Answer: < 100 nM

Question: For `CC[C@@H]1c2nnc(C)n2-c2cnc(Nc3ccc(C(=O)N4CCN(c5ccc(NC6CCC(=O)NC6=O)cc5F)CC4)cc3OC)nc2N1CC1CCCCC1` (stereo partly shown) [ICT-0001517], which DC50 (BRD4-NUT; [4]) is on record?
Answer: < 100 nM

Question: And the IC50 (RPMI2650; [5])?
Answer: < 100 nM

Question: And the DC50 (BRD4; [6])?
Answer: < 100 nM

Question: Which results are given for `CC[C@@H]1c2nnc(C)n2-c2cnc(Nc3ccc(C(=O)N4CCN(CC5CCN(c6ccc(NC7CCC(=O)NC7=O)cc6F)CC5)CC4)cc3OC)nc2N1CC1CCCCC1` (stereo partly drawn) [ICT-0001518, 3-((4-(4-((4-(4-(((R)-5-(cyclohexylmethyl)-4-ethyl-1-methyl-4,5-dihydro-[1,2,4]triazolo[4,3-f]pteridine-7-yl)amino)3-methoxybenzoyl)piperazine-1-il)methyl)piperidine-1-yl)-3-fluorophenyl)amino)piperidine-2,6-dione]?
Answer: DC50 (BRD4-NUT; [4]): < 100 nM; IC50 (RPMI2650; [5]): 100 to 1000 nM; DC50 (BRD4; [6]): < 100 nM

Question: Which DC50 (BRD4-NUT; [4]) does the source give for `CC[C@@H]1c2nnc(C)n2-c2cnc(Nc3ccc(C(=O)NC4CCN(CCCC#Cc5ccc6c(=O)n(C7CCC(=O)NC7=O)ncc6c5)CC4)cc3OC)nc2N1CC1CCCCC1` (stereo partly drawn) [ICT-0001534, 4-(((R)-5-(cyclohexylmethyl)-4-ethyl-1-methyl-4,5-dihydro-[1,2,4]triazolo[4,3-f]pteridine-7-yl)amino)N-(1-(5-(2-(2,6-dioxopiperidin-3-yl)1-oxo-1,2-dihydroptalazine-6-yl)pent-4-phosphorus-1-yl)piperidine-4-yl)-3-methoxybenzamide] here?
Answer: > 1000 nM

Question: And the IC50 (RPMI2650; [5])?
Answer: > 1000 nM

Question: What about the DC50 (BRD4; [6]) of the same compound?
Answer: > 1000 nM

Question: How did the DC50 (BRD4-NUT; [4]) turn out when `CC[C@@H]1c2nnc(C)n2-c2cnc(Nc3ccc(C(=O)N4CCO[C@@H](CN5CCN(c6ccc7c(=O)n(C8CCC(=O)NC8=O)nc(C)c7c6)CC5)C4)cc3OC)nc2N1CC1CCCCC1` (stereo partly drawn) [ICT-0001548, 3-(6-(4-(((S)-4-(4-(((R)-5-(cyclohexylmethyl)-4-ethyl-1-methyl-4,5-dihydro-[1,2,4]triazolo[4,3-f]pteridine-7-yl)amino)3-methoxybenzoyl)morpholine-2-il)methyl)piperazine-1-yl)4-methyl-1-oxopthalazine-2(1H)-yl)piperidine-2,6-dione] was run?
Answer: < 100 nM

Question: What about the IC50 (RPMI2650; RPM12650, read-out: Cell Viatility (IC50)) of the same compound?
Answer: > 1000 nM

Question: What about the DC50 (BRD4; [6]) of the same compound?
Answer: < 100 nM

Question: `CC[C@@H]1c2nnc(C)n2-c2cnc(Nc3ccc(C(=O)NCCOCCOCCOCCNc4cccc5cnn(C6CCC(=O)NC6=O)c(=O)c45)cc3OC)nc2N1CC1CCCCC1` (stereo partly shown) [ICT-0001549] was tested. Which DC50 (BRD4-NUT; [4]) did it give?
Answer: > 1000 nM

Question: And the IC50 (RPMI2650; [5])?
Answer: 100 to 1000 nM

Question: What about the DC50 (BRD4; [6]) of the same compound?
Answer: < 100 nM

Question: With `CC[C@@H]1c2nnc(C)n2-c2cnc(Nc3ccc(C(=O)N4CCC(CN5CCN(c6ccc7c(=O)n(C8CCC(=O)NC8=O)nc(C)c7c6)CC5)CC4)cc3OC)nc2N1CC1CCCCC1` (stereo partly drawn) [ICT-0001553, 3-(6-(4-(1-(4-(((R)-5-(cyclohexylmethyl)-4-ethyl-1-methyl-4,5-dihydro-[1,2,4]triazolo[4,3-f]pteridine-7-yl)amino)3-methoxybenzoyl)piperidine-4-yl)piperazine-1-yl)4-methyl-1-oxopthalazine-2(1H)-yl)piperidine-2,6-dione] as the compound, how does the DC50 (BRD4-NUT; [4]) read?
Answer: 100 to 1000 nM

Question: What about the IC50 (RPMI2650; [5]) of the same compound?
Answer: > 1000 nM

Question: What about the DC50 (BRD4; [6]) of the same compound?
Answer: < 100 nM

Question: With `CC[C@H]1c2nnc(C)n2-c2cnc(Nc3ccc(C(=O)N4CCN(c5ccc(NC6CCC(=O)N(C)C6=O)cc5F)CC4)c(OC)c3)nc2N1CC1CCCCC1` (stereo partly drawn) [ICT-0001554, 3-({4-[4-(4-{[(4S)-5-(cyclohexylmethyl)-4-ethyl-1-methyl-4H,5H-[1,2,4]triazolo[4,3-f]pteridine-7-yl]amino}-2-methoxybenzoyl)piperazine-1-yl]-3-fluorophenyl}amino)-1-methylpiperidine-2,6-dione] as the compound, how does the DC50 (BRD4-NUT; [4]) read?
Answer: > 1000 nM

Question: What about the IC50 (RPMI2650; [5]) of the same compound?
Answer: > 1000 nM

Question: And the DC50 (BRD4; [6])?
Answer: > 1000 nM

Question: Which results are given for `CC[C@@H]1c2nnc(C)n2-c2cnc(Nc3ccc(C(=O)N4CCC(N5CCN(c6ccc7c(=O)n(C8CCC(=O)NC8=O)nc(C)c7c6)CC5)CC4)cc3OC)nc2N1CC1CCCCC1` (stereo partly drawn) [ICT-0001556, 3-(6-(4-(1-(4-(((R)-5-(cyclohexylmethyl)-4-ethyl-1-methyl-4,5-dihydro-[1,2,4]triazolo[4,3-f]pteridine-7-yl)amino)3-methoxybenzoyl)piperidine-4-yl)piperazine-1-yl)4-methyl-1-oxopthalazine-2(1H)-yl)piperidine-2,6-dione]?
Answer: DC50 (BRD4-NUT; [4]): < 100 nM; IC50 (RPMI2650; [5]): > 1000 nM; DC50 (BRD4; [6]): < 100 nM

Question: How did the DC50 (BRD4-NUT; [4]) turn out when `CC[C@@H]1c2nnc(C)n2-c2cnc(Nc3ccc(C(=O)N4CC(CN5CCN(c6ccc7c(=O)n(C8CCC(=O)NC8=O)nc(C)c7c6)CC5)C4)cc3OC)nc2N1CC1CCCCC1` (stereo partly drawn) [ICT-0001557, 3-(6-(4-((1-(4-(((R)-5-(cyclohexylmethyl)-4-ethyl-1-methyl-4,5-dihydro-[1,2,4]triazolo[4,3-f]pteridine-7-yl)amino)3-methoxybenzoyl)azetidine-3-yl)methyl)piperazine-1-yl)4-methyl-1-oxopthalazine-2(1H)-yl)piperidine-2,6-dione] was run?
Answer: > 1000 nM

Question: And the IC50 (RPMI2650; [5])?
Answer: > 1000 nM

Question: What about the DC50 (BRD4; [6]) of the same compound?
Answer: < 100 nM
